# Assay results published in paper PMC7288559 (ACS Omega, 2020).
# How the values were obtained:
# [1] = target: recombinant human LDHA (Homo sapiens, UniProt P00338); experiment: LDHA enzymatic assay based on NADH cofactor consumption [NAD; type: biochemical; conditions: in vitro, dose-dependent
# [2] = system: hepatocellular carcinoma cells Snu-398; type: cell-based; conditions: lactate in supernatant
# [3] = system: pancreatic carcinoma cells MIA PaCa-2; type: cell-based; conditions: lactate in supernatant
smiles,measurement,setting,value
"O=C(O)c1ccc(CN2C(=O)c3cccc(NC(=O)c4ccc(Cl)s4)c3C2=O)cc1 [Compound 3, 4-[(4-{[(5-chloro-2-thienyl)carbonyl]amino}-1,3-dioxo-1,3-dihydro-2H-isoindol-2-yl)methyl]benzoic acid]",Inhibition of lactate production by recombinant human LDHA,[1],completely inhibited
same,Inhibition of lactate production in cells,[2],neither 3 nor 7 showed inhibition
same,Inhibition of lactate production in cells,[3],neither 3 nor 7 showed inhibition
"O=C(Nc1cccc(NS(=O)(=O)c2ccc3oc4cc([N+](=O)[O-])ccc4c3c2)c1)C1(O)CC1 [Compound 7, 1-hydroxy-N-(3-{[(7-nitrodibenzo[b,d]furan-2-yl)sulfonyl]amino}phenyl)cyclopropanecarboxamide]",Inhibition of lactate production by recombinant human LDHA,[1],completely inhibited
same,Inhibition of lactate production in cells,[2],neither 3 nor 7 showed inhibition
same,Inhibition of lactate production in cells,[3],neither 3 nor 7 showed inhibition
